{"source": "ChEMBL document CHEMBL3797052", "about": "(Eur J Med Chem, 2016)", "data": [{"system": "not listed separately", "assay": "Antiproliferative activity against human RPMI8226 cells assessed as growth inhibition after 48 hrs by sulforhodamine B assay", "type": "functional", "conditions": "RPMI-8226, 48 h", "units": {"LC50": "µM", "TGI": "µM"}, "values": [{"smiles": "CNC(=O)c1cc(Oc2ccc3nc(NC(=O)Nc4cc(C(F)(F)F)cc(C(F)(F)F)c4)sc3c2)ccn1", "LC50": 76.3, "TGI": 3.81}]}, {"system": "MDA-MB-231", "assay": "(§1) Antiproliferative activity against human MDA-MB-231 cells assessed as growth inhibition after 48 hrs by sulforhodamine B assay", "type": "functional", "conditions": "MDA-MB-231, 48 h", "units": {"GI50": "µM", "TGI": "µM"}, "values": [{"smiles": "CNC(=O)c1cc(Oc2ccc3nc(NC(=O)Nc4cc(C(F)(F)F)cc(C(F)(F)F)c4)sc3c2)ccn1", "GI50": 0.829, "TGI": 2.62}]}, {"system": "MDA-MB-231", "assay": "as §1", "type": "functional", "conditions": "MDA-MB-231, 48 h, read-out: LC50 (the source's name)", "units": {"CC50": "µM"}, "values": [{"smiles": "CNC(=O)c1cc(Oc2ccc3nc(NC(=O)Nc4cc(C(F)(F)F)cc(C(F)(F)F)c4)sc3c2)ccn1", "CC50": 7.5}]}, {"system": "not listed separately", "assay": "(§2) Antiproliferative activity against human Hs 578T cells assessed as growth inhibition after 48 hrs by sulforhodamine B assay", "type": "functional", "conditions": "not given", "units": {"GI50": "µM", "TGI": "µM"}, "values": [{"smiles": "CNC(=O)c1cc(Oc2ccc3nc(NC(=O)Nc4cc(C(F)(F)F)cc(C(F)(F)F)c4)sc3c2)ccn1", "GI50": 1.65, "TGI": 4.84}]}, {"system": "not listed separately", "assay": "as §2", "type": "functional", "conditions": "read-out: LC50 (the source's name)", "units": {"CC50": "µM"}, "values": [{"smiles": "CNC(=O)c1cc(Oc2ccc3nc(NC(=O)Nc4cc(C(F)(F)F)cc(C(F)(F)F)c4)sc3c2)ccn1", "CC50": "> 100"}]}, {"molecular_target": "CYP2C9 (Homo sapiens, UniProt P11712)", "sequence (P11712 whole entry)": "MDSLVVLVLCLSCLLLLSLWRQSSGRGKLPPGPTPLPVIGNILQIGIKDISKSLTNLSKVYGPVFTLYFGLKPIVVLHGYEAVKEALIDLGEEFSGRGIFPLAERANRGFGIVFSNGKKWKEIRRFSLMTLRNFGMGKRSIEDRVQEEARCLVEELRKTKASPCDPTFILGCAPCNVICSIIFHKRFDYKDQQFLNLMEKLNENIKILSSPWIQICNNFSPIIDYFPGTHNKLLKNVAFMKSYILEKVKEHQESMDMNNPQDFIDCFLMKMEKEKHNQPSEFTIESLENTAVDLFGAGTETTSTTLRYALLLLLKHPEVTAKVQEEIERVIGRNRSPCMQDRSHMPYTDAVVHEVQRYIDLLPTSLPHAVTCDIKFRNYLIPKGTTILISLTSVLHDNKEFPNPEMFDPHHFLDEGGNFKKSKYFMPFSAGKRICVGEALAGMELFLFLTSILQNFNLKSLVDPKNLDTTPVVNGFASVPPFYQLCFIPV", "assay": "Inhibition of recombinant human CYP2C9 assessed as remaining enzyme activity using CYP2C9 green as substrate at 10 uM after 5 mins in presence of NADP by fluorescence plate reader analysis", "type": "ADME", "conditions": "recombinant human CYP2C9, probe CYP2C9 green, read-out: Activity", "units": {"activity at 5 min, 10 µM": "%"}, "values": [{"smiles": "CNC(=O)c1cc(Oc2ccc3nc(NC(=O)Nc4cc(C(F)(F)F)cc(C(F)(F)F)c4)sc3c2)ccn1", "activity at 5 min, 10 µM": 88.2}]}, {"system": "NCI-H322M", "assay": "Antiproliferative activity against human NCI-H322M cells assessed as cell growth at 10^-8 M after 48 hrs by sulforhodamine B assay", "type": "functional", "conditions": "read-out: Activity", "units": {"growth at 0.01 µM": "%"}, "values": [{"smiles": "CNC(=O)c1cc(Oc2ccc3nc(NC(=O)Nc4cc(C(F)(F)F)cc(C(F)(F)F)c4)sc3c2)ccn1", "growth at 0.01 µM": 95}]}, {"system": "not listed separately", "assay": "Antiproliferative activity against human SF295 cells assessed as cell growth at 10^-8 M after 48 hrs by sulforhodamine B assay", "type": "functional", "conditions": "SF-295, 48 h, read-out: Activity", "units": {"growth at 0.01 µM": "%"}, "values": [{"smiles": "CNC(=O)c1cc(Oc2ccc3nc(NC(=O)Nc4cc(C(F)(F)F)cc(C(F)(F)F)c4)sc3c2)ccn1", "growth at 0.01 µM": 87}]}, {"system": "not listed separately", "assay": "Antiproliferative activity against human SNB19 cells assessed as cell growth at 10^-8 M after 48 hrs by sulforhodamine B assay", "type": "functional", "conditions": "SNB-19, 48 h, read-out: Activity", "units": {"growth at 0.01 µM": "%"}, "values": [{"smiles": "CNC(=O)c1cc(Oc2ccc3nc(NC(=O)Nc4cc(C(F)(F)F)cc(C(F)(F)F)c4)sc3c2)ccn1", "growth at 0.01 µM": 99}]}, {"system": "not listed separately", "assay": "Antiproliferative activity against human HL-60(TB) cells assessed as cell growth at 10^-6 M after 48 hrs by sulforhodamine B assay", "type": "functional", "conditions": "HL-60, 48 h, read-out: Activity", "units": {"growth at 1 µM": "%"}, "values": [{"smiles": "CNC(=O)c1cc(Oc2ccc3nc(NC(=O)Nc4cc(C(F)(F)F)cc(C(F)(F)F)c4)sc3c2)ccn1", "growth at 1 µM": 75}]}, {"system": "NCI-H23", "assay": "Antiproliferative activity against human NCI-H23 cells assessed as cell growth at 10^-6 M after 48 hrs by sulforhodamine B assay", "type": "functional", "conditions": "NCI-H23, 48 h, read-out: Activity", "units": {"growth at 1 µM": "%"}, "values": [{"smiles": "CNC(=O)c1cc(Oc2ccc3nc(NC(=O)Nc4cc(C(F)(F)F)cc(C(F)(F)F)c4)sc3c2)ccn1", "growth at 1 µM": 36}]}, {"system": "not listed separately", "assay": "Antiproliferative activity against human SW620 cells assessed as cell growth at 10^-6 M after 48 hrs by sulforhodamine B assay", "type": "functional", "conditions": "SW-620, 48 h, read-out: Activity", "units": {"growth at 1 µM": "%"}, "values": [{"smiles": "CNC(=O)c1cc(Oc2ccc3nc(NC(=O)Nc4cc(C(F)(F)F)cc(C(F)(F)F)c4)sc3c2)ccn1", "growth at 1 µM": 80}]}, {"system": "not listed separately", "assay": "Antiproliferative activity against human SNB19 cells assessed as cell growth at 10^-6 M after 48 hrs by sulforhodamine B assay", "type": "functional", "conditions": "SNB-19, 48 h, read-out: Activity", "units": {"growth at 1 µM": "%"}, "values": [{"smiles": "CNC(=O)c1cc(Oc2ccc3nc(NC(=O)Nc4cc(C(F)(F)F)cc(C(F)(F)F)c4)sc3c2)ccn1", "growth at 1 µM": 62}]}, {"system": "not listed separately", "assay": "Antiproliferative activity against human RPMI8226 cells assessed as cell growth at 10^-4 M after 48 hrs by sulforhodamine B assay", "type": "functional", "conditions": "RPMI-8226, 48 h, read-out: Activity", "units": {"growth at 100 µM": "%"}, "values": [{"smiles": "CNC(=O)c1cc(Oc2ccc3nc(NC(=O)Nc4cc(C(F)(F)F)cc(C(F)(F)F)c4)sc3c2)ccn1", "growth at 100 µM": -52}]}, {"system": "NCI-H322M", "assay": "Antiproliferative activity against human NCI-H322M cells assessed as cell growth at 10^-4 M after 48 hrs by sulforhodamine B assay", "type": "functional", "conditions": "read-out: Activity", "units": {"growth at 100 µM": "%"}, "values": [{"smiles": "CNC(=O)c1cc(Oc2ccc3nc(NC(=O)Nc4cc(C(F)(F)F)cc(C(F)(F)F)c4)sc3c2)ccn1", "growth at 100 µM": -50}]}, {"system": "not listed separately", "assay": "Antiproliferative activity against human HCT116 cells assessed as cell growth at 10^-4 M after 48 hrs by sulforhodamine B assay", "type": "functional", "conditions": "HCT-116, 48 h, read-out: Activity", "units": {"growth at 100 µM": "%"}, "values": [{"smiles": "CNC(=O)c1cc(Oc2ccc3nc(NC(=O)Nc4cc(C(F)(F)F)cc(C(F)(F)F)c4)sc3c2)ccn1", "growth at 100 µM": -95}]}, {"system": "not listed separately", "assay": "Antiproliferative activity against human SF268 cells assessed as cell growth at 10^-4 M after 48 hrs by sulforhodamine B assay", "type": "functional", "conditions": "SF-268, 48 h, read-out: Activity", "units": {"growth at 100 µM": "%"}, "values": [{"smiles": "CNC(=O)c1cc(Oc2ccc3nc(NC(=O)Nc4cc(C(F)(F)F)cc(C(F)(F)F)c4)sc3c2)ccn1", "growth at 100 µM": -91}]}, {"system": "not listed separately", "assay": "Antiproliferative activity against human SNB75 cells assessed as cell growth at 10^-4 M after 48 hrs by sulforhodamine B assay", "type": "functional", "conditions": "SNB-75, 48 h, read-out: Activity", "units": {"growth at 100 µM": "%"}, "values": [{"smiles": "CNC(=O)c1cc(Oc2ccc3nc(NC(=O)Nc4cc(C(F)(F)F)cc(C(F)(F)F)c4)sc3c2)ccn1", "growth at 100 µM": -75}]}, {"system": "not listed separately", "assay": "Antiproliferative activity against human SKOV3 cells assessed as cell growth at 10^-8 M after 48 hrs by sulforhodamine B assay", "type": "functional", "conditions": "SK-OV-3, 48 h, read-out: Activity", "units": {"growth at 0.01 µM": "%"}, "values": [{"smiles": "CNC(=O)c1cc(Oc2ccc3nc(NC(=O)Nc4cc(C(F)(F)F)cc(C(F)(F)F)c4)sc3c2)ccn1", "growth at 0.01 µM": 87}]}, {"system": "A498", "assay": "Antiproliferative activity against human A498 cells assessed as cell growth at 10^-8 M after 48 hrs by sulforhodamine B assay", "type": "functional", "conditions": "A498, 48 h, read-out: Activity", "units": {"growth at 0.01 µM": "%"}, "values": [{"smiles": "CNC(=O)c1cc(Oc2ccc3nc(NC(=O)Nc4cc(C(F)(F)F)cc(C(F)(F)F)c4)sc3c2)ccn1", "growth at 0.01 µM": 100}]}, {"system": "SK-MEL-5", "assay": "Antiproliferative activity against human SK-MEL-5 cells assessed as cell growth at 10^-6 M after 48 hrs by sulforhodamine B assay", "type": "functional", "conditions": "SK-MEL-5, 48 h, read-out: Activity", "units": {"growth at 1 µM": "%"}, "values": [{"smiles": "CNC(=O)c1cc(Oc2ccc3nc(NC(=O)Nc4cc(C(F)(F)F)cc(C(F)(F)F)c4)sc3c2)ccn1", "growth at 1 µM": 36}]}, {"system": "not listed separately", "assay": "Antiproliferative activity against human OVCAR3 cells assessed as cell growth at 10^-6 M after 48 hrs by sulforhodamine B assay", "type": "functional", "conditions": "OVCAR-3, 48 h, read-out: Activity", "units": {"growth at 1 µM": "%"}, "values": [{"smiles": "CNC(=O)c1cc(Oc2ccc3nc(NC(=O)Nc4cc(C(F)(F)F)cc(C(F)(F)F)c4)sc3c2)ccn1", "growth at 1 µM": 52}]}, {"system": "MDA-MB-435", "assay": "Antiproliferative activity against human MDA-MB-435 cells assessed as cell growth at 10^-4 M after 48 hrs by sulforhodamine B assay", "type": "functional", "conditions": "MDA-MB-435, 48 h, read-out: Activity", "units": {"growth at 100 µM": "%"}, "values": [{"smiles": "CNC(=O)c1cc(Oc2ccc3nc(NC(=O)Nc4cc(C(F)(F)F)cc(C(F)(F)F)c4)sc3c2)ccn1", "growth at 100 µM": -80}]}, {"system": "786-0", "assay": "Antiproliferative activity against human 786-0 cells assessed as cell growth at […] after 48 hrs by sulforhodamine B assay", "type": "functional", "conditions": "786-0, 48 h, read-out: Activity", "units": {"growth at 100 µM": "%"}, "values": [{"smiles": "CNC(=O)c1cc(Oc2ccc3nc(NC(=O)Nc4cc(C(F)(F)F)cc(C(F)(F)F)c4)sc3c2)ccn1", "growth at 100 µM": -94}]}, {"system": "not listed separately", "assay": "Antiproliferative activity against human TK10 cells assessed as cell growth at 10^-4 M after 48 hrs by sulforhodamine B assay", "type": "functional", "conditions": "TK-10, 48 h, read-out: Activity", "units": {"growth at 100 µM": "%"}, "values": [{"smiles": "CNC(=O)c1cc(Oc2ccc3nc(NC(=O)Nc4cc(C(F)(F)F)cc(C(F)(F)F)c4)sc3c2)ccn1", "growth at 100 µM": -87}]}]}
